Reference: US10813891B2, “Method of inhibiting chronification of pain” (priority 2011, dated 2020)

System: mRNA encoding ATF3, IL-6 and BDNF
Experiment: Real time qRT-PCR of mRNA in trigeminal ganglion and Sp5c of CCI-ION rats
Assay type: in vivo, rat
Conditions: subchronic 10 mg/kg i.p. twice daily; ipsilateral trigeminal ganglion and Sp5c area; 4 h after last injection
Experimental: Subchronic treatment consisted of twice daily injections of tapentadol (10 mg/kg, i.p. at 10:00 am and 6:00 pm) or saline for 4 days starting on the 15th day after nerve ligation in both CCI-ION and CCI-SN rats. Animals were further injected with tapentadol (10 mg/kg i.p.) or saline at 10:00 am the following day (19th day post-surgery), and assessment of allodynia with von Frey filament tests (see below) was made at various times up to 4 hours after this injection. All rats were killed by decapitation 4 hours after the last injection for real-time qRT-PCR determinations of specific mRNAs in ganglia and central tissues (see below).
Animals used for qRT-PCR procedure were decapitated immediately after performance of von Frey filament test four hours after the last injection of tapentadol or saline for subchronic treatment conditions (see above). […]
First-stranded cDNA synthesis (from 660 ng total RNA per 20 μl reaction mixture) was carried out using SuperScript™ III Reverse Transcriptase and random primers (250 ng per reaction), as recommended by the manufacturer (Invitrogen, Cergy Pontoise, France). […] Semi-quantitative determinations were made with reference to the reporter gene encoding glyceraldehyde 3-phosphate dehydrogenase (GaPDH; Rn99999916_sl). […] Specific mRNA levels were calculated after normalizing from GaDPH mRNA in each sample (Latrémolière et al., 2008). […]

CC[C@@H](c1cccc(O)c1)[C@@H](C)CN(C)C [Tapentadol, (−)-(1R,2R)-3-(3-dimethylamino-1-ethyl-2-methyl-propyl)-phenol] was tested, and the “ATF3, IL-6 and BDNF mRNA levels” value was “had no significant effects”.
